This note sets out measurements from PubChem BioAssay (NCI).

Several values for one entry are separate records, joined by “and”; a condition that tells them apart may be missing. Identical values can stand only once.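 In this assay, cells in 96-well plates receive the compound at five concentrations for 48 hours. Endpoints are linearly interpolated between the surrounding concentrations. GI50 is the concentration that inhibits growth by half. Definition used: TGI = concentration required for complete inhibition of growth.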 A value given as a limit tells only on which side of the number the result lay.

Holding throughout (test): DTP human tumour cell line panel, 48 h
Experiment [1] has as its system MDA-MB-435.
Experiment [2] deals with PC-3 prostate.
The test system of experiment [3] is BT-549 breast.
Experiment [4] relates to DU-145 prostate.
Experiment [5] deals with MDA-N.

Consider `CCOC(=O)N1CCN(CCCCCOc2ccccc2C2CCCCC2)CC1`, for which the GI50 is 3.88 µM in experiment [1], 2.6 µM in experiment [2], 3 µM in experiment [3] and 14.4 µM in experiment [4]. Besides, the TGI in experiment [1] came out at 15.1 µM; in experiment [2], 13 µM; in experiment [3] it was 11.3 µM; in experiment [4], 32.3 µM.

`Cc1cc2c(cc1Cl)S/C(=C/C(=O)O)C(Nc1cccc3nsnc13)=NS2(=O)=O`: the GI50 in experiment [1] was 56.2 µM; in experiment [2], 41 µM; in experiment [4], above 16 µM. The concentration for total growth inhibition (TGI) in experiment [1] is above 71 µM; in experiment [2], above 75.8 µM; in experiment [3] it was 1.38 µM; in experiment [4], above 57.3 µM.

`Cc1cc(C)n(C2=NS(=O)(=O)c3ccccc3N2C)n1`: the concentration for total growth inhibition (TGI) in experiment [1], in experiment [2], in experiment [3], in experiment [4] and in experiment [5] was above 100 µM in each case.

As to `CC1c2ccccc2N=C2SC(=S)N3CCN=C3N21` (configuration not stated), the GI50 in experiment [1], in experiment [2], in experiment [3] and in experiment [4] was above 100 µM each time. The total growth inhibition concentration (TGI) in experiment [1], in experiment [2], in experiment [3] and in experiment [4] was above 100 µM each time.

For `O=C(c1cccs1)C1NO[N+]([O-])=C1c1cccs1` (configuration not stated), the GI50 in experiment [1] was 5.29 µM; in experiment [2], 8.43 µM; in experiment [3], 9.41 µM; in experiment [4], 3.76 µM. In addition, the TGI was found to be 16.3 µM in experiment [1], 22.3 µM in experiment [2], 21.2 µM in experiment [3] and 10.7 µM in experiment [4].

`Clc1ccc2c(c1)N(c1ncnc3ccc(-c4cnc5[nH]ncc5c4)cc13)CC2`: the GI50 is 0.804 µM in experiment [1], 0.458 µM in experiment [2], 0.676 µM in experiment [3] and 0.351 µM in experiment [4]. The total growth inhibition concentration (TGI) in experiment [1], in experiment [2], in experiment [3] and in experiment [4] was above 100 µM each time.

Take `O=C(Cl)C1=C(c2ccccc2)C1c1ccccc1` (configuration not stated): the total growth inhibition concentration (TGI) in experiment [1], in experiment [2], in experiment [3], in experiment [4] and in experiment [5] was above 100 µM each time.

As to `CCN(CC)c1ccc(/C=C/C2=[N+](C)c3ccccc3C2(C)C)c(C)c1`, the 50% growth inhibitory concentration (GI50) in experiment [1] is 0.0653 µM; in experiment [2], 0.0225 µM; in experiment [3], below 0.0309 µM; in experiment [4], 0.0985 µM. Also, the total growth inhibition concentration (TGI) turned out to be 1.32 µM in experiment [1], 1.67 µM in experiment [2], 1.24 µM in experiment [3] and 11.6 µM in experiment [4].

Turning to `COc1ccc(C(=O)c2nc3ccccc3n2CC(=O)c2ccc(Cl)cc2)cc1`, the GI50 in experiment [1] is 0.336 µM; in experiment [2] it was 3.09 µM; in experiment [3] it was 4.11 µM; in experiment [4], 4.51 µM. Besides, the TGI was 1.79 µM in experiment [1], above 100 µM in experiment [2], above 100 µM in experiment [3] and above 100 µM in experiment [4].

In the case of `C=CC1=C(C)C2=NC1=CC1=NC(=CC3=C(C)C4=C(O)[C@H](C(=O)OC)C(=C5NC(=C2)[C@@H](C)[C@@H]5CCC(=O)O)C4=N3)C(CC)=C1C`, the concentration for total growth inhibition (TGI) in experiment [1] is above 46.5 µM; in experiment [2], above 41.1 µM; in experiment [3] it was above 20.2 µM; in experiment [4], above 100 µM; in experiment [5] it was above 100 µM.

In the case of `COC(=O)c1ccc2c(c1)C(=O)c1c-2n(CCCN=[N+]=[N-])c(=O)c2cc([N+](=O)[O-])ccc12`, the GI50 is above 100 µM in experiment [1], above 100 µM in experiment [2], 24.1 µM in experiment [3] and 70.9 µM in experiment [4]. Further, the TGI in experiment [1] was above 100 µM; in experiment [2] it was above 100 µM; in experiment [3] it was 69.6 µM; in experiment [4], above 100 µM.

Regarding `CSc1ccc(N(C)c2nc(C)nc3c2CCC3)cc1`, in experiment [2], the GI50 is below 0.01 µM and the TGI amounted to 51.6 µM. Moreover, in experiment [3], the GI50 is below 0.01 µM and the total growth inhibition concentration (TGI) was below 0.01 µM.

As to `C/C1=C\CC[C@@](C)(O)[C@@H]2C[C@H](CC/C(C)=C/CC1)C1(CC1)C(=O)O2`, the GI50 in experiment [1] was 16.5 µM; in experiment [2], 27.8 µM; in experiment [3], 25.5 µM; in experiment [4] it was 41.8 µM. The total growth inhibition concentration (TGI) in experiment [1] is 35.1 µM; in experiment [2], 69.4 µM; in experiment [3] it was 69.7 µM; in experiment [4], above 100 µM.

For `CC(=Nc1ccc(S(N)(=O)=O)cc1)c1c(O)[nH]c2ccccc12`, the GI50 in experiment [1], in experiment [2], in experiment [3] and in experiment [4] was above 25 µM each time. Further, the TGI in experiment [1], in experiment [2], in experiment [3] and in experiment [4] was above 25 µM in each case.

Take `Cc1ccc(-n2nc(C(C)(C)C)cc2NC(=O)NCc2cc(F)ccc2Oc2ccc3c(cnn3CCO)c2)cc1`: the GI50 in experiment [1] is 3.37 µM and 2.75 µM; in experiment [2], > 10 µM and 5.28 µM; in experiment [3], > 10 µM and 4.68 µM; in experiment [4], > 10 µM and 7.2 µM. Besides, the TGI in experiment [1] was above 62.5 µM; in experiment [2] it was above 100 µM; in experiment [3], above 96.1 µM; in experiment [4], above 100 µM.

In the case of `[2H]c1nc(=Nc2cc(NC(=O)C=C)c(N(C)CCN(C)C)cc2OC)[nH]c(-c2cn(C([2H])([2H])[2H])c3ccccc23)c1[2H]`, the GI50 in experiment [1] was 1.62 µM; in experiment [2], 1.61 µM; in experiment [3], 1.52 µM; in experiment [4], 1.51 µM. For the same molecule, the TGI in experiment [1] was 3.09 µM; in experiment [2], 3.5 µM; in experiment [3] it was 3.25 µM; in experiment [4], 11.8 µM.

As for `CCn1c(-c2nonc2N)nc2ccncc21`, the GI50 in experiment [1], in experiment [2], in experiment [3] and in experiment [4] was above 25 µM throughout. Also, the total growth inhibition concentration (TGI) in experiment [1], in experiment [2], in experiment [3] and in experiment [4] was above 25 µM throughout.

Usually GI50 stands for the concentration at which growth is held to half of that of the control. One may read the TGI as the concentration at which net growth stops.
